Assay results from patent US20240261414A1, “FATTY ACID AMIDE HYDROLASE (FAAH) CLEAVABLE PRODRUGS OF BRAIN TARGETING ACTIVES AND COMBINATION WITH PERIPHERALLY RESTRICTED FAAH INHIBITORS” (Autobahn Therapeutics, Inc., priority 2021, published 2024).

Target: T1, recombinant human FAAH (rhFAAH) (Homo sapiens, UniProt O00519)
T1 construct: purchased Cayman Chemical (Ann Arbor, MI, USA)
T1 sequence (O00519 1-579): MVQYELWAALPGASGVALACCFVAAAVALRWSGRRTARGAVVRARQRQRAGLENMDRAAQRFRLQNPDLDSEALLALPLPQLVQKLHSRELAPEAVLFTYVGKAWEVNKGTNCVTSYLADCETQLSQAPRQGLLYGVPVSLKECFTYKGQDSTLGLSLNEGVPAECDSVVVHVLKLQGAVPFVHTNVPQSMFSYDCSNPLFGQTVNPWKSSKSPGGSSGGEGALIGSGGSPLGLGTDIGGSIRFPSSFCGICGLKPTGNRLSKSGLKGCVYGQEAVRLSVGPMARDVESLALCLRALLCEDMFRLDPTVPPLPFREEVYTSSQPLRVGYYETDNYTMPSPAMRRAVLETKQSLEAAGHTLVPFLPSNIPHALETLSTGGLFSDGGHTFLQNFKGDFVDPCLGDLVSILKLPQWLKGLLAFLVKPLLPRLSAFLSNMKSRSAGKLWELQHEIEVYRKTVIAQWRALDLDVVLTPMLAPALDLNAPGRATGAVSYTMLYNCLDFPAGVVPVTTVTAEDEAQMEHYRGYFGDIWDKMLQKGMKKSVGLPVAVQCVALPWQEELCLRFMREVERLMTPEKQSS
Experiment: FAAH substrate evaluation (acid metabolite formation)
Format: biochemical
Details: 0.5 ng/L rhFAAH, 1 μM test compound, Tris-EDTA buffer pH 8.0, room temperature, 0-60 minutes
Experimental: Purified recombinant human FAAH (rhFAAH) was purchased from Cayman Chemical (Ann Arbor, MI, USA). The total volume for each incubation was 400 μL containing a final 0.5 ng/L rhFAAH, 1 μM test compound, 1.25% ethanol or 1 μM PF-3845 (FAAH inhibitor), and 0.1% bovine serum albumin in Tris-EDTA buffer at pH 8.0). The positive control was LL-341001. The incubation was conducted at the room temperature. At 0, 5, 15, 30 and 60 minutes, an aliquot of 30 μL reaction mixtures was removed and mixed with 300 μL acetonitrile containing 5 ng/mL terfenadine and 10 ng/mL tolbutamide as internal standards to quench the reaction. The resulting mixture was centrifuged at 4000 rpm, 4° C. for 15 minutes, and 100 μL supernatant was ready for LC-MS/MS analysis to measure the formation of acid metabolite.
Acquity Ultra Performance LC system from Waters was used for sample analysis. The chromatography was performed on a reverse phase Kinetex 2.6 μm C18 column, 2.1×30 mm, 100 Å. The mobile phase A comprised of 0.1% formic acid in water and mobile phase B comprised of 0.1% formic acid in acetonitrile with a 2-min run time at the flow rate of 0.8 mL/min for the acid metabolite from positive control or a 1.5 min run time at the flow rate of 0.9 mL/min for the acid metabolite of test compounds. The mass spectrometer (API-5500 and API Q Trap 4000 Applied Biosystems/MDS SCIEX Instruments, Framingham, MA, USA) was operated under ESI positive or negative ion MRM mode.
The formation of acid metabolite was monitored and quantified using one calibration point of 1 μM. The observed rate constant (ke) for the acid metabolite formation was calculated by plotting the metabolite concentration versus time of incubation with the slope being ke and is shown in Table 2.

ke (observed rate constant for the acid metabolite formation) | SMILES
C (ke is less than 0.1 and more than 0) | Cc1noc(-c2ccc(CSCCC(=O)NCCCF)cc2)c1NC(=O)O[C@H](C)c1ccccc1Cl [Compound 46]
D (ke is 0) | CCCCC[C@H](O)CC[C@@H]1[C@H]2Cc3cccc(OCC(=O)NC)c3C[C@H]2C[C@H]1O [Compound 13]
A (ke is more than or equal to 1.0) | CCCCC[C@H](O)CC[C@@H]1[C@H]2Cc3cccc(OCC(=O)Nc4ccncc4)c3C[C@H]2C[C@H]1O [Compound 55]
A (ke is more than or equal to 1.0) | Cc1c(C=CC(=O)Nc2ccncc2)ccc(OCc2cc(Cl)cc3c2OC(C)(C)C3)c1C [Compound 7, 3-(4-((5-chloro-2,2-dimethyl-2,3-dihydrobenzofuran-7-yl)methoxy)-2,3-dimethylphenyl)-N-(pyridin-4-yl)propenamide]
D (ke is 0) | O=C(C[C@H]1CCc2c1[nH]c1ccc(OCc3ccc(C4CCCC4)c(C(F)(F)F)c3)cc21)Nc1ccncc1 [Compound 47]
A (ke is more than or equal to 1.0) | CCc1cc(/C(C)=N/OCc2ccc(C3CCCCC3)c(C(F)(F)F)c2)ccc1CN1CC(C(=O)Nc2ccncc2)C1 [Compound 38]
D (ke is 0) | CNC(=O)c1ccc2nc(-c3cc(Cl)cc(Cl)c3)oc2c1 [Compound 16]

SMILES | ke (observed rate constant for the acid metabolite formation)
Cc1c(CCC(=O)NC2CC2)ccc(OCc2cc(Cl)cc3c2OC(C)(C)C3)c1C [Compound 3, 3-(4-((5-chloro-2,2-dimethyl-2,3-dihydrobenzofuran-7-yl)methoxy)-2,3-dimethylphenyl)-N-cyclopropylpropanamide] | B (ke is less than 1.0 and more than or equal to 0.1)
Cc1c(C=CC(=O)NCCCF)ccc(OCc2cc(Cl)cc3c2OC(C)(C)C3)c1C [Compound 6, 3-(4-((5-chloro-2,2-dimethyl-2,3-dihydrobenzofuran-7-yl)methoxy)-2,3-dimethylphenyl)-N-(3-fluoropropyl)propenamide] | B (ke is less than 1.0 and more than or equal to 0.1)
CCCCC[C@H](O)CC[C@@H]1[C@H]2Cc3cccc(OCC(=O)N[C@H]4C[C@@H]4F)c3C[C@H]2C[C@H]1O [Compound 48] | B (ke is less than 1.0 and more than or equal to 0.1)
